# Molecular target: T1, acetylcholine muscarinic M1 receptor (Homo sapiens, UniProt P11229)
# T1 construct: expressed in transfected cells; host or cells: CHOnfat (CHO cells; also called CHOK1/hM1)
# T1 sequence (P11229 1-460): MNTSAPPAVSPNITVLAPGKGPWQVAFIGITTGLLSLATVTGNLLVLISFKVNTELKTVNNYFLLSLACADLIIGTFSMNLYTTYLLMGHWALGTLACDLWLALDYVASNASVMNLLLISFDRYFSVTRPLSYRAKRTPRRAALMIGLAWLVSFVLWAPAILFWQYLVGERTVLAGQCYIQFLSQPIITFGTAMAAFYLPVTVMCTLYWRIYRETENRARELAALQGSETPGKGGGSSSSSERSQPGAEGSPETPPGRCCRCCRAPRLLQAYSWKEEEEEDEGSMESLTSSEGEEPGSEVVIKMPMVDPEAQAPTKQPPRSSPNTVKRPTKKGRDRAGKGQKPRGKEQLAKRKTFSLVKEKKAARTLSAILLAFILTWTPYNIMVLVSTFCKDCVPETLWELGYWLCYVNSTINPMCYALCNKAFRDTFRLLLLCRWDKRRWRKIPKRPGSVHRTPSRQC
# Assay: Muscarinic M1 FLIPR intracellular calcium assay for positive allosteric modulators
# Type: cell-based
# Settings: IP = inflection point calculated from FLIPR values; CHOnfat/hM1 cells; 4 min preincubation, then EC20 acetylcholine (3 nM final); read-out: IP Value
# Protocol: The assay studies the effect of one or several concentrations of test compounds on basal or acetylcholine-stimulated Ca^2+ levels using FLIPR.
# Compounds are prepared and subjected to a preincubation period of 4 min. Thereafter, a single EC20 concentration of acetylcholine is added to each well (3 nM final). The intracellular Ca^2+ level of each sample is measured and compared to an acetylcholine control to determine any modulatory activity.
# Cells: CHOnfat/hM1, hM2, hM3 or hM4 cells are plated 24 hr before the assay at a density of 18,000 cells/well (100 μL) in a 384 well plate. CHOnfat/hM1 and CHOnfat/hM3 Growth Medium: 90% DMEM (Hi Glucose); 10% HI FBS; 2 mM L-glutamine; 0.1 mM NEAA; Pen-Strep; and 1 mg/ml Geneticin, are added. For M2Gqi5CHOnfat and M4Gqi5CHOnfat cells, an additional 600 ug/ml hygromycin is added.
# Equipment: 384 well plate, 120 μL addition plate; 96-well Whatman 2 ml Uniplate Incubator, 37° C., 5% CO2; Skatron EMBLA-384 Plate Washer; Multimek Pipetting System; Genesis Freedom 200 System; Mosquito System; Temo Nanolitre Pipetting System; and FLIPR^384 Fluorometric Imaging Plate Reader System are used.
# Buffers. Assay Buffer: Hanks Balanced Salt Solution, with 20 mM Hepes, 2.5 mM Probenecid (Sigma P-8761) first dissolved in 1 N NaOH, 1% Bovine Serum Albumin (Sigma A-9647). Dye Loading Buffer: Assay Buffer plus 1% Fetal Bovine Serum and Fluo-4AM/Pluronic Acid Mixture. 2 mM Fluo-4AM ester stock in DMSO (Molecular Probes F-14202) Concentration of 2 μM in buffer for a final concentration of 1 μM in Assay. 20% Pluronic Acid Solution stock, with concentration of 0.04% in Buffer, 0.02% in Assay.
# 65 μL of 2 mM Fluo-4AM are mixed with 130 μL of 20% Pluronic Acid. The resulting solution and 650 μL FBS is added to the assay buffer for a total volume of 65 mL. Positive Controls: 4-Br-A23187: 10 mM in DMSO; final concentration 10 μM. Acetylcholine: 10 mM in water, working stock at both 20 μM and 30 μM in assay buffer, final concentration of 10 μM. This is used to check the maximum stimulation of the CHOK1/hM1 cells. 20 μM (2×) acetylcholine is added in the preincubation part of the assay, and the 30 μM (3×) stock is added in the second part. (EC20)Acetylcholine: 10 mM in water, working stock of 9 nM (3×), and final concentration in assay is 3 nM. This is used after the preincubation with test compounds. Addition of the EC20 Acetylcholine to each well with a test compound will ascertain any modulator activity. 24 wells contain 3 nM Acetylcholine alone as a control.
# Determining Activity of Putative Compounds:
# Screening Plate Compounds are titrated in 96-well plates (columns 2-11), 100% DMSO, started at a concentration of 15 mM (150× stock concentration), and 3-fold serial dilutions using Genesis Freedom200 System. Four 96-well plates are combined into a 384-well plate using Mosquito Nanolitre Pipetting System by transferring 1 μl of serial diluted compounds to each well, and 1 mM acetylcholine (100× stock concentration) were added as a control. Using Temo, 49 μl assay buffer is added to each well of the 384-well plate right before assay.
# In a 96-well Whatman 2 ml Uniplate, 9 nM Acetylcholine (3×) is pipetted into wells corresponding to the screening compounds, and into control wells. The 30 μM acetylcholine control (3×) is added into control wells, and the 3× agonist plate is transferred into a 384 well plate.
# Cells are washed three times with 100 μL of buffer, leaving 30 μL of buffer in each well. Using Multimek, 30 μL of Dye Loading Buffer is added into each well and incubated at 37° C., 5% CO2 for up to one hr.
# After 60 min, the cells are washed three times with 100 μL of buffer, leaving 30 μL of buffer in each well. The cell plate, screening plate, and agonist addition plates are placed on the platform in the FLIPR and the door closed. A signal test to check background fluorescence and basal fluorescence signal is performed. Laser intensity is adjusted if necessary. […]
row,EC50 [nM],SMILES
1,52,"COc1ccc(C(F)c2cc(C(=O)N[C@H]3CCOC[C@@H]3O)nc3ccccc23)cn1 (stereo partly drawn) [Example 15, 4-[Fluoro(6-methoxypyridin-3-yl)methyl]-N-[(3R,4S)-3-hydroxytetrahydro-2H-pyran-4-yl]quinoline-2-carboxamide hydrate]"
2,39,"O=C(N[C@H]1CCCC[C@@H]1O)c1cc(Cc2ccc(C3CC3)nc2)c2ccccc2n1 [Example 4, 4-[(6-Cyclopropylpyridin-3-yl)methyl]-N-[(1,2)-2-hydroxycyclohexyl]quinoline-2-carboxamide]"
